According to patent publication US5171837A, “Peptide capable of binding interleukin 6 and an adsorbent comprising the peptide immobilized on a carrier” (Kuraray Co., Ltd., priority 1989, dated 1992):
Non-standard residues stand in square brackets, D forms with d. Residues, ends and D or L forms follow the SMILES beside them. No end group written: not given here. *: point of attachment. X1 = NCCCCCCCCCCCCCCCCCC(=O)*; 12Ado = NCCCCCCCCCCCC(=O)O

Each molecule was assayed against T1, IL-6 (Homo sapiens, UniProt P05231) (assay: Activity for inhibition of binding of IL-6 to receptor by peptide (IL-6 receptor expression cells, FITC labeled anti-IL-6 antibody)). Conditions: 5 μg of the peptide, 50 ng of IL-6, 10^5 IL-6 receptor expression cells, 4° C for one hour.
T1 construct: purchased Genzyme Corp
Experimental: A human lymphocyte fraction was obtained from human peripheral blood with Ficoll-Paque (manufactured by Pharmacia-LKB). The fraction was reacted with a cultured supernatant of Epstein-Barr Virus producing cell strain B958 to transform the human lymphocytes to obtain IL-6 receptor expression cells.
1 mg of anti-human IL-6 antibody [Rabbit Anti-human Interleukin-6, manufactured by Genzyme Corp.] was dissolved in a 0.05M carbonate buffer solution (pH: 9.5) and to the resulting solution was added 10 μg of FITC [Fluorescein isothiocyanate, manufactured by Sigma Corp.]. The mixture was stirred at 4° C. overnight. The resulting solution was passed through PD-10 column (manufactured by Pharmacia-LKB) to obtain FITC labeled anti-IL-6 antibody as a firstly eluted fraction.
10^5 IL-6 receptor expression cells were suspended in 0.5 % BSA (bovine serum albumin, manufactured by Sigma Corp.)-PBS (a phosphate buffer solution containing 0.15 M sodium chloride, pH 7.4) and to the resulting suspension were added 50 ng of IL-6 (Human recombinant interleukin-6, manufactured by Genzyme Corp.) and 5 μg of the peptide obtained in any one of Examples 1 to 96. The suspension was allowed to stand at 4° C for one hour. Then, after washing the cells centrifugally with 0.5% BSA-PBS three times (1200 rpm, 5 min.), 1 μg of FITC labeled anti-IL-6 antibody was added and the mixture was allowed to stand at 4° C. for 30 minutes. After washing with 0.5% BSA-PBS three times, the intensity of fluorescence of the cells was determined. The binding inhibition activity of the peptide of each Example was evaluated, by taking the value obtained without addition of the peptide as a control and taking the value- obtained without addition of IL-6 as a blank, according to the following formula: [formula]

T1 sequence (P05231 30-212): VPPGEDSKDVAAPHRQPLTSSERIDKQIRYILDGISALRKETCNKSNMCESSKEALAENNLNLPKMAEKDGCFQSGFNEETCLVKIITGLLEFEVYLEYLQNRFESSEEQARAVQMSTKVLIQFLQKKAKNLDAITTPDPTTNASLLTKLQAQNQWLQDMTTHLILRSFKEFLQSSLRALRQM

Molecule	Binding inhibition activity (%)
CC(C)C[C@H](NC(=O)[C@H](Cc1c[nH]cn1)NC(=O)[C@@H](NC(=O)[C@@H](NC(=O)CNC(=O)CCCCCCCCCCCCCCCCCN)[C@@H](C)O)C(C)C)C(=O)N[C@@H](CC(C)C)C(=O)N[C@H](C(=O)N[C@@H](CC(=O)O)C(=O)N[C@H](C(=O)N1CCC[C@H]1C(=O)N1CCC[C@H]1C(=O)N[C@@H](CCC(=O)O)C(=O)N[C@@H](CCC(=O)O)C(=O)N1CCC[C@H]1C(=O)N[C@@H](CCC(N)=O)C(=O)N[C@@H](CC(C)C)C(=O)N[C@@H](CO)C(=O)N[C@@H](CS)C(=O)N[C@@H](Cc1ccccc1)C(=O)N[C@@H](CCCNC(=N)N)C(=O)N[C@@H](CCCCN)C(=O)NCC(=O)O)C(C)C)C(C)C [Example 12] (X1-GTVHLLVDVPPEEPQLSCFRKG-OH)	35%
CC(C)C[C@H](NC(=O)[C@H](CCC(=O)O)NC(=O)[C@H](Cc1ccccc1)NC(=O)[C@H](CCCNC(=N)N)NC(=O)[C@H](CC(C)C)NC(=O)[C@H](CCCNC(=N)N)NC(=O)[C@H](Cc1ccc(O)cc1)NC(=O)[C@H](Cc1ccccc1)NC(=O)[C@H](CO)NC(=O)[C@H](CO)NC(=O)[C@H](CC(N)=O)NC(=O)[C@H](Cc1c[nH]c2ccccc12)NC(=O)[C@H](CO)NC(=O)[C@H](Cc1c[nH]cn1)NC(=O)[C@@H]1CCCN1C(=O)[C@H](CC(=O)O)NC(=O)[C@H](CCC(N)=O)NC(=O)[C@H](Cc1c[nH]c2ccccc12)NC(=O)CCCCCCCCCCCN)C(=O)N[C@@H](CCCNC(=N)N)C(=O)N[C@@H](Cc1ccc(O)cc1)C(=O)N[C@@H](CCCNC(=N)N)C(=O)N[C@@H](C)C(=O)N[C@@H](CCC(=O)O)C(=O)N[C@@H](CCCNC(=N)N)C(=O)N[C@@H](CO)C(=O)N[C@@H](CCCCN)C(=O)N[C@@H](CCC(=O)O)C(=O)N[C@@H](CCC(=O)O)C(=O)N[C@@H](CCC(=O)O)C(=O)N[C@@H](CCC(=O)O)C(=O)N[C@@H](CCC(=O)O)C(=O)O [Example 91] (H-[12Ado]WQDPHSWNSSFYRLRFELRYRAERSKEEEEE-OH)	60%
CC(C)C[C@H](NC(=O)[C@H](CCC(=O)O)NC(=O)[C@H](Cc1ccccc1)NC(=O)[C@H](CCCNC(=N)N)NC(=O)[C@H](CC(C)C)NC(=O)[C@H](CCCNC(=N)N)NC(=O)[C@H](Cc1ccc(O)cc1)NC(=O)[C@H](Cc1ccccc1)NC(=O)[C@H](CO)NC(=O)[C@H](CO)NC(=O)[C@H](CC(N)=O)NC(=O)[C@H](Cc1c[nH]c2ccccc12)NC(=O)[C@H](CO)NC(=O)[C@H](Cc1c[nH]cn1)NC(=O)CCCCCCCCCCCCCCCCCN)C(=O)N[C@@H](CCCNC(=N)N)C(=O)N[C@@H](Cc1ccc(O)cc1)C(=O)N[C@@H](CCCNC(=N)N)C(=O)N[C@@H](C)C(=O)N[C@@H](CCC(=O)O)C(=O)N[C@@H](CCCNC(=N)N)C(=O)N[C@@H](CO)C(=O)N[C@@H](CCCCN)C(=O)NCC(=O)O [Example 60] (X1-HSWNSSFYRLRFELRYRAERSKG-OH)	58%
CC(C)C[C@H](NC(=O)[C@H](Cc1c[nH]c2ccccc12)NC(=O)[C@H](CCCNC(=N)N)NC(=O)[C@@H]1CCCN1C(=O)[C@H](CC(N)=O)NC(=O)CCCCCCCCCCCCCCCCCN)C(=O)N[C@@H](CO)C(=O)N[C@H](C(=O)N[C@H](C(=O)N[C@@H](Cc1c[nH]c2ccccc12)C(=O)N[C@@H](CCC(N)=O)C(=O)N[C@@H](CC(=O)O)C(=O)N1CCC[C@H]1C(=O)N[C@@H](Cc1c[nH]cn1)C(=O)N[C@@H](CO)C(=O)NCC(=O)O)[C@@H](C)O)C(C)C [Example 52] (X1-NPRWLSVTWQDPHSG-OH)	35%
KQDPHSWNSSFYRLRFELRYRAERSKD-NH2 [Example 86]	58%
CC(C)C[C@H](NC(=O)[C@H](Cc1c[nH]cn1)NC(=O)[C@@H](NC(=O)[C@@H](NC(=O)CNC(=O)CCCCCCCCCCCN)[C@@H](C)O)C(C)C)C(=O)N[C@@H](CC(C)C)C(=O)N[C@H](C(=O)N[C@@H](CC(=O)O)C(=O)N[C@H](C(=O)N1CCC[C@H]1C(=O)N1CCC[C@H]1C(=O)N[C@@H](CCC(=O)O)C(=O)N[C@@H](CCC(=O)O)C(=O)N1CCC[C@H]1C(=O)N[C@@H](CCC(N)=O)C(=O)N[C@@H](CC(C)C)C(=O)N[C@@H](CO)C(=O)N[C@@H](CS)C(=O)N[C@@H](Cc1ccccc1)C(=O)N[C@@H](CCCNC(=N)N)C(=O)N[C@@H](CCCCN)C(=O)N[C@@H](CCC(=O)O)C(=O)N[C@@H](CCC(=O)O)C(=O)N[C@@H](CCC(=O)O)C(=O)N[C@@H](CCC(=O)O)C(=O)N[C@@H](CCC(=O)O)C(=O)O)C(C)C)C(C)C [Example 11] (H-[12Ado]GTVHLLVDVPPEEPQLSCFRKEEEEE-OH)	34%
NPRWLSVTWQDPHS [Example 53]	22%
WNSSFYRLRFELRYRAERSK [Example 37]	48%
KTSLPGDSVTLTCPGVEPEDD-NH2 [Example 6]	36%
TSLPGDSVTLTCPGVEPED [Example 5]	28%
KKTSLPGDSVTLTCPGVEPED [Example 2]	35%
RKFQNSPAEDFQEPCQYSQESK [Example 17]	60%
KPHSWNSSFYRLRFELRYRAERSKD-NH2 [Example 70]	59%
CC[C@H](C)[C@H](NC(=O)[C@H](CC(N)=O)NC(=O)[C@H](CC(=O)O)NC(=O)[C@H](CC(=O)O)NC(=O)[C@H](CC(=O)O)NC(=O)[C@H](CCCCN)NC(=O)[C@H](CC(N)=O)NC(=O)[C@@H](NC(=O)[C@@H](NC(=O)[C@H](CC(C)C)NC(=O)[C@H](C)NC(=O)[C@H](CCC(N)=O)NC(=O)CCCCCCCCCCCN)[C@@H](C)O)[C@@H](C)O)C(=O)N[C@@H](CC(C)C)C(=O)N[C@@H](Cc1ccccc1)C(=O)N[C@@H](CCCNC(=N)N)C(=O)N[C@@H](CC(=O)O)C(=O)N[C@@H](CO)C(=O)N[C@@H](C)C(=O)N[C@@H](CCC(=O)O)C(=O)N[C@@H](CCC(=O)O)C(=O)N[C@@H](CCC(=O)O)C(=O)N[C@@H](CCC(=O)O)C(=O)N[C@@H](CCC(=O)O)C(=O)O [Example 27] (H-[12Ado]QALTTNKDDDNILFRDSAEEEEE-OH)	48%
QALTTNKDDDNILFRDSA [Example 29]	41%
KRKFQNSPAEDFQEPCQYSQESD-NH2 [Example 22]	58%
CC(C)C[C@H](NC(=O)[C@H](CCC(=O)O)NC(=O)[C@H](Cc1ccccc1)NC(=O)[C@H](CCCNC(=N)N)NC(=O)[C@H](CC(C)C)NC(=O)[C@H](CCCNC(=N)N)NC(=O)[C@H](Cc1ccc(O)cc1)NC(=O)[C@H](Cc1ccccc1)NC(=O)[C@H](CO)NC(=O)[C@H](CO)NC(=O)[C@H](CC(N)=O)NC(=O)[C@H](Cc1c[nH]c2ccccc12)NC(=O)[C@H](CO)NC(=O)[C@H](Cc1c[nH]cn1)NC(=O)[C@@H]1CCCN1C(=O)[C@H](CC(=O)O)NC(=O)[C@H](CCC(N)=O)NC(=O)[C@H](Cc1c[nH]c2ccccc12)NC(=O)CCCCCCCCCCCCCCCCCN)C(=O)N[C@@H](CCCNC(=N)N)C(=O)N[C@@H](Cc1ccc(O)cc1)C(=O)N[C@@H](CCCNC(=N)N)C(=O)N[C@@H](C)C(=O)N[C@@H](CCC(=O)O)C(=O)N[C@@H](CCCNC(=N)N)C(=O)N[C@@H](CO)C(=O)N[C@@H](CCCCN)C(=O)NCC(=O)O [Example 92] (X1-WQDPHSWNSSFYRLRFELRYRAERSKG-OH)	62%
KHSWNSSFYRLRFELRYRAERSKD-NH2 [Example 62]	50%
RKFQNSPAEDFQEPCQYSQES [Example 21]	52%
C[C@H](NC(=O)[C@@H]1CCCN1C(=O)[C@H](CO)NC(=O)[C@H](CC(N)=O)NC(=O)[C@H](CCC(N)=O)NC(=O)[C@H](Cc1ccccc1)NC(=O)[C@H](CCCCN)NC(=O)[C@H](CCCNC(=N)N)NC(=O)CCCCCCCCCCCN)C(=O)N[C@@H](CCC(=O)O)C(=O)N[C@@H](CC(=O)O)C(=O)N[C@@H](Cc1ccccc1)C(=O)N[C@@H](CCC(N)=O)C(=O)N[C@@H](CCC(=O)O)C(=O)N1CCC[C@H]1C(=O)N[C@@H](CS)C(=O)N[C@@H](CCC(N)=O)C(=O)N[C@@H](Cc1ccc(O)cc1)C(=O)N[C@@H](CO)C(=O)N[C@@H](CCC(N)=O)C(=O)N[C@@H](CCC(=O)O)C(=O)N[C@@H](CO)C(=O)N[C@@H](CCC(=O)O)C(=O)N[C@@H](CCC(=O)O)C(=O)N[C@@H](CCC(=O)O)C(=O)N[C@@H](CCC(=O)O)C(=O)N[C@@H](CCC(=O)O)C(=O)O [Example 19] (H-[12Ado]RKFQNSPAEDFQEPCQYSQESEEEEE-OH)	62%
CC(C)C[C@H](NC(=O)[C@H](CCC(=O)O)NC(=O)[C@H](Cc1ccccc1)NC(=O)[C@H](CCCNC(=N)N)NC(=O)[C@H](CC(C)C)NC(=O)[C@H](CCCNC(=N)N)NC(=O)[C@H](Cc1ccc(O)cc1)NC(=O)[C@H](Cc1ccccc1)NC(=O)[C@H](CO)NC(=O)[C@H](CO)NC(=O)[C@H](CC(N)=O)NC(=O)[C@H](Cc1c[nH]c2ccccc12)NC(=O)CCCCCCCCCCCCCCCCCN)C(=O)N[C@@H](CCCNC(=N)N)C(=O)N[C@@H](Cc1ccc(O)cc1)C(=O)N[C@@H](CCCNC(=N)N)C(=O)N[C@@H](C)C(=O)N[C@@H](CCC(=O)O)C(=O)N[C@@H](CCCNC(=N)N)C(=O)N[C@@H](CO)C(=O)N[C@@H](CCCCN)C(=O)NCC(=O)O [Example 36] (X1-WNSSFYRLRFELRYRAERSKG-OH)	62%
KWQDPHSWNSSFYRLRFELRYRAERSKD-NH2 [Example 94]	63%
